In PubChem BioAssay AID330 (DTP/NCI, 2004):
Where “and” joins values, the source holds several entries; their conditions need not be identical. Equal values may be shown once. Inconclusive results and toxic doses are left out. Rule for the calls: active = survival T/C of 150% or more; inactive = T/C below 125% in these data.

System: P388 leukemia ip, CD2F1 mice, survival T/C
Assay: NCI In Vivo Anticancer Drug Screen. Data for tumor model P388 Leukemia (intraperitoneal) in CD2F1 (CDF1) mice
Conditions: endpoint: median survival time, higher = longer survival
Method in brief: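 Mice carrying the transplanted tumor received test compound or vehicle. Survival was recorded in each group, and the value is the treated-group measurement divided by that of the vehicle-treated control group.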

[1] = dose: 50.0 mg/kg/injection, schedule: Q01DX009 (ip), vehicle: saline
[2] = dose: 100.0 mg/kg/injection, schedule: Q01DX009 (ip), vehicle: saline
[3] = dose: 100.0 mg/kg/injection, schedule: Q01DX001 (ip), vehicle: Klucel (hydroxypropylcellulose) (HPC)
[4] = dose: 12.5 mg/kg/injection, schedule: Q01DX009 (ip), vehicle: saline with Tween-80
[5] = dose: 25.0 mg/kg/injection, schedule: Q01DX009 (ip), vehicle: saline with Tween-80
[6] = dose: 50.0 mg/kg/injection, schedule: Q01DX009 (ip), vehicle: saline with Tween-80
[7] = dose: 50.0 mg/kg/injection, schedule: Q01DX005 (ip), vehicle: saline with Tween-80
[8] = dose: 100.0 mg/kg/injection, schedule: Q01DX005 (ip), vehicle: saline with Tween-80
[9] = dose: 200.0 mg/kg/injection, schedule: Q01DX005 (ip), vehicle: saline with Tween-80
[10] = dose: 60.0 mg/kg/injection, schedule: Q01DX005 (ip), vehicle: saline with Tween-80
[11] = dose: 120.0 mg/kg/injection, schedule: Q01DX005 (ip), vehicle: saline with Tween-80

Measured: T/C

CCOC(=O)c1ccnc2ccc3ccccc3c12
inactive: dose: 50.0 mg/kg/injection, schedule: Q01DX005 (ip), vehicle: Klucel (hydroxypropylcellulose) (HPC) 105 % of control | dose: 100.0 mg/kg/injection, schedule: Q01DX005 (ip), vehicle: Klucel (hydroxypropylcellulose) (HPC) 102 % of control | dose: 200.0 mg/kg/injection, schedule: Q01DX005 (ip), vehicle: Klucel (hydroxypropylcellulose) (HPC) 96 % of control

C[N+](C)(CCCCOc1c(Br)cc(Br)cc1Br)Cc1ccc([N+](=O)[O-])o1
inactive: dose: 12.5 mg/kg/injection, schedule: Q04DX003 (ip), vehicle: Klucel (hydroxypropylcellulose) (HPC) 100 % of control | dose: 25.0 mg/kg/injection, schedule: Q04DX003 (ip), vehicle: Klucel (hydroxypropylcellulose) (HPC) 101 % of control | dose: 50.0 mg/kg/injection, schedule: Q04DX003 (ip), vehicle: Klucel (hydroxypropylcellulose) (HPC) 100 % of control

CC1=CC2C(O)(CC3(COC(=O)/C=C/c4ccccc4)OC3C3C4C(C)(C)C4(OC(=O)/C=C/c4ccccc4)C(OC(=O)/C=C/c4ccccc4)C(C)C32O)C1=O (stereo not drawn)
inactive: dose: 0.2 mg/kg/injection, schedule: Q01DX005 (ip), vehicle: saline + alcohol 100 % of control | dose: 0.4 mg/kg/injection, schedule: Q01DX005 (ip), vehicle: saline + alcohol 100 % of control | dose: 0.8 mg/kg/injection, schedule: Q01DX005 (ip), vehicle: saline + alcohol 100 % of control | dose: 1.6 mg/kg/injection, schedule: Q01DX005 (ip), vehicle: saline + alcohol 98 % of control | dose: 3.2 mg/kg/injection, schedule: Q01DX005 (ip), vehicle: saline + alcohol 104 % of control

CCOC(=O)Nc1cc(NCC(=O)c2ccc(Cl)cc2)c([N+](=O)[O-])c(N)n1
inactive: dose: 50.0 mg/kg/injection, schedule: Q01DX001 (ip), vehicle: saline with Tween-80 92 % of control | dose: 100.0 mg/kg/injection, schedule: Q01DX001 (ip), vehicle: saline with Tween-80 90 % of control | dose: 200.0 mg/kg/injection, schedule: Q01DX001 (ip), vehicle: saline with Tween-80 88 % of control

CCC1(CC)C(=O)N(C(C)=O)C2(C)C(=O)NC(=O)N2C1=O (stereo not drawn)
inactive: dose: 100.0 mg/kg/injection, schedule: Q01DX001 (ip), vehicle: saline 100 % of control | dose: 200.0 mg/kg/injection, schedule: Q01DX001 (ip), vehicle: saline 100 % of control | dose: 400.0 mg/kg/injection, schedule: Q01DX001 (ip), vehicle: saline 101 % of control

Cc1cc[c]([Bi]([c]2ccc(C)cc2)[c]2ccc(C)cc2)cc1
inactive: dose: 60.0 mg/kg/injection, schedule: Q01DX005 (ip), vehicle: Klucel (hydroxypropylcellulose) (HPC) 105 % of control | dose: 120.0 mg/kg/injection, schedule: Q01DX005 (ip), vehicle: Klucel (hydroxypropylcellulose) (HPC) 96 % of control

O=C(CN1C(=O)c2ccccc2C1=O)OCCNCCCl
inactive: [1] 99 % of control | [2] 106 % of control | dose: 200.0 mg/kg/injection, schedule: Q01DX009 (ip), vehicle: saline 107 % of control

COc1cc(C/C(=C\c2cc(OC)c(OC)c(OC)c2)[N+](=O)[O-])ccc1OCc1ccccc1
inactive: dose: 50.0 mg/kg/injection, schedule: Q01DX001 (ip), vehicle: Klucel (hydroxypropylcellulose) (HPC) 93 % of control | [3] 94 % of control

Cc1nc2c(sc(=N)n2-c2ccccc2)c(=O)[nH]1
inactive: [4] 115 % of control | [5] 106 % of control | [6] 103 % of control

C=CCOc1ccccc1C(=O)NC(O)(C(F)(F)F)C(F)(F)F
inactive: dose: 50.0 mg/kg/injection, schedule: Q04DX002 (ip), vehicle: suspension in saline 100 % of control | dose: 100.0 mg/kg/injection, schedule: Q04DX002 (ip), vehicle: suspension in saline 104 % of control | dose: 200.0 mg/kg/injection, schedule: Q04DX002 (ip), vehicle: suspension in saline 98 % of control

CC(C)CN1CC(=O)N2CCCC(C)N2C(=O)C1 (stereo not drawn)
inactive: [7] 100 % of control | [8] 99 % of control | [9] 102 % of control

O=C1c2ccccc2C2=Cc3ccccc3C(O)N12 (stereo not drawn)
inactive: [10] 104 % of control | [11] 100 % of control | dose: 240.0 mg/kg/injection, schedule: Q01DX005 (ip), vehicle: saline with Tween-80 100 % of control

C=CCNC(=O)/C(C)=C(/C)c1ccccc1
inactive: [3] 100 % of control | dose: 200.0 mg/kg/injection, schedule: Q01DX001 (ip), vehicle: Klucel (hydroxypropylcellulose) (HPC) 104 % of control | dose: 400.0 mg/kg/injection, schedule: Q01DX001 (ip), vehicle: Klucel (hydroxypropylcellulose) (HPC) 99 % of control

CN(C)c1ccc(C(O)C(N)=O)cc1 (stereo not drawn)
inactive: dose: 6.25 mg/kg/injection, schedule: Q04DX003 (ip), vehicle: saline 100 % of control | dose: 12.5 mg/kg/injection, schedule: Q04DX003 (ip), vehicle: saline 104 % of control | dose: 25.0 mg/kg/injection, schedule: Q04DX003 (ip), vehicle: saline 100 % of control

Clc1nnc(Cl)c(Cl)c1Cl
inactive: dose: 0.1 mg/kg/injection, schedule: Q01DX009 (ip), vehicle: saline with Tween-80 100 % of control | dose: 0.1 mg/kg/injection, schedule: Q04DX003 (ip), vehicle: saline with Tween-80 100 % of control | dose: 0.2 mg/kg/injection, schedule: Q01DX009 (ip), vehicle: saline with Tween-80 95 % of control | dose: 0.2 mg/kg/injection, schedule: Q04DX003 (ip), vehicle: saline with Tween-80 100 % of control | dose: 0.38 mg/kg/injection, schedule: Q04DX003 (ip), vehicle: saline with Tween-80 90 % of control | dose: 0.4 mg/kg/injection, schedule: Q04DX003 (ip), vehicle: saline with Tween-80 100 % of control

COc1ccc(-n2c(-c3ccc(Cl)cc3)csc2=N)c(OC)c1
inactive: [5] 97 % of control | [6] 106 % of control | [1] 114 % of control | dose: 100.0 mg/kg/injection, schedule: Q01DX009 (ip), vehicle: saline with Tween-80 100 % of control | [2] 109 % of control

Nc1ncnc2c1c1c(=O)[nH]cnc1n2C1OC(CO)C(O)C1O (stereo not drawn)
inactive: dose: 3.13 mg/kg/injection, schedule: Q01DX009 (ip), vehicle: water 107 % of control | dose: 6.25 mg/kg/injection, schedule: Q01DX009 (ip), vehicle: water 113 % of control | dose: 12.5 mg/kg/injection, schedule: Q01DX009 (ip), vehicle: water 114 % of control | dose: 50.0 mg/kg/injection, schedule: Q01DX009 (ip), vehicle: water 116 % of control

COC(=O)/C=C1/Nc2ccccc2SC1C(=O)OC (stereo not drawn)
inactive: [7] 104 % of control | [8] 99 % of control | [9] 100 % of control

[Se]=P(c1ccccc1)(N1CC1)N1CC1
inactive: dose: 25.0 mg/kg/injection, schedule: Q04DX003 (ip), vehicle: saline with Tween-80 108 % of control | dose: 50.0 mg/kg/injection, schedule: Q04DX003 (ip), vehicle: saline with Tween-80 109 % of control

CC(=O)N1CN(C(C)=O)CN(C(C)=O)C1
inactive: dose: 60.0 mg/kg/injection, schedule: Q01DX005 (ip), vehicle: saline 94 % of control | dose: 120.0 mg/kg/injection, schedule: Q01DX005 (ip), vehicle: saline 94 % of control | dose: 240.0 mg/kg/injection, schedule: Q01DX005 (ip), vehicle: saline 100 % of control

Nc1nnc(CCC(=O)Nc2cccc(C(F)(F)F)c2)n1N
inactive: [7] 107 % of control | [8] 105 % of control | [9] 90 % of control

CC1(C)OC(=O)ON(C(c2ccccc2)c2ccccc2)C1=O
inactive: [10] 101 % of control | [11] 108 % of control

CCN(CC)CCOc1ccc2c(c1)C(=O)c1cc(OCCN(CC)CC)ccc1-2
inactive: dose: 3.13 mg/kg/injection, schedule: Q01DX009 (ip), vehicle: saline with Tween-80 109 % of control | dose: 6.25 mg/kg/injection, schedule: Q01DX009 (ip), vehicle: saline with Tween-80 109 % of control | [4] 109 % of control | [5] 100 % of control and 113 % of control | dose: 25.0 mg/kg/injection, schedule: Q01DX009 (ip), vehicle: saline 87 % of control | [6] 90 % of control | [1] 100 % of control | [2] 100 % of control
